pIC50: −log10 of the molar value. Activity calls are given as the source filed them. The rule behind the calls is not given here.
Experiments:
Rattus norvegicus [1] = assay: Antilipolytic activity in fasted Wistar rat assessed as reduction of plasma glycerol AUC ( 0 to 7 hrs) at 10 mg/kg, po; assay type: functional, organism-based
Hormone-sensitive lipase = target: T1, Hormone-sensitive lipase (Homo sapiens, UniProt Q05469); assay: Inhibition of recombinant human HSL expressed in Sf9 insect cells using PNPB as substrate measured after 5 mins by spectrophotometric method
T1 sequence (Q05469 whole entry): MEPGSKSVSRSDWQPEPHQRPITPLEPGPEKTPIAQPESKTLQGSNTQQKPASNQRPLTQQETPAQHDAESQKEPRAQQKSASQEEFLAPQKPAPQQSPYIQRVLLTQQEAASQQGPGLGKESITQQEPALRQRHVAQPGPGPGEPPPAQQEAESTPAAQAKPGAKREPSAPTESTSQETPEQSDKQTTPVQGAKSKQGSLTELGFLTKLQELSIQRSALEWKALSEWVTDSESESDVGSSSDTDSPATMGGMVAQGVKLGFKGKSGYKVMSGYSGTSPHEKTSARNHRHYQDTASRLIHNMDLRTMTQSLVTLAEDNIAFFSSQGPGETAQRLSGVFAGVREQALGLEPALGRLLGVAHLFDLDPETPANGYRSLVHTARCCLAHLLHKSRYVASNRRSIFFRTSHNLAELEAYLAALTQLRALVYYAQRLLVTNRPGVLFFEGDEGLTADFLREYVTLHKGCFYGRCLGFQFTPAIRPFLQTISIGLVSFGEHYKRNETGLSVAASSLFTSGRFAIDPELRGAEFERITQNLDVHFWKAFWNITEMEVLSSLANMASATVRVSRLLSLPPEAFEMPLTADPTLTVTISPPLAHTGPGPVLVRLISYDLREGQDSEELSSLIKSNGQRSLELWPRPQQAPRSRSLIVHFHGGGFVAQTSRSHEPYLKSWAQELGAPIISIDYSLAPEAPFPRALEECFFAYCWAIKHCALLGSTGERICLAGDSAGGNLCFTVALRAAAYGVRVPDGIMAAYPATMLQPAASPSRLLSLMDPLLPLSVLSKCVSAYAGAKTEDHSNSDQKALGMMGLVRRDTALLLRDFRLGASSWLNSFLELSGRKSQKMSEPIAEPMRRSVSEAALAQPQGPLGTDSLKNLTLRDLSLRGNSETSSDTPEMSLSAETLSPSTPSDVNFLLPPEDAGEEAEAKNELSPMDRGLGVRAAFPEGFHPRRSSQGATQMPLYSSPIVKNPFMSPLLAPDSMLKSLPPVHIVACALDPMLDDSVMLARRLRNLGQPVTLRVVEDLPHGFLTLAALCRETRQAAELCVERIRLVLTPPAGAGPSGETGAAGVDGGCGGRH

[2] = target: T2, Hormone-sensitive lipase (Homo sapiens) (UniProt Q05469); assay: Inhibition of recombinant human HSL expressed in Sf9 insect cells at 1 uM using PNPB as substrate measured after 5 mins by spectrophotometric method
T2 sequence (whole entry): T1 sequence (Q05469 whole entry)

[3] = target: T2, Hormone-sensitive lipase (Homo sapiens); assay: Inhibition of recombinant human HSL expressed in Sf9 insect cells at 10 uM using PNPB as substrate measured after 5 mins by spectrophotometric method
[4] = target: T2, Hormone-sensitive lipase (Homo sapiens); assay: Mixed-type inhibition of recombinant human HSL expressed in Sf9 insect cells using PNPB as substrate measured after 5 mins by Lineweaver-Burk plot analysis
[5] = Half life in rat plasma at 3 mg/kg, po by LC-MS/MS analysis; assay type: ADME, organism-based
[6] = target: Cholinesterase (Homo sapiens) (UniProt P06276); assay: Inhibition of BChE (unknown origin) at >50 uM preincubated for 10 mins followed by addition of S-butyrylthiocholine iodide as substrate measured after 15 mins by spectrophotometric method
Cholinesterase (Homo sapiens), sequence (P06276 whole entry): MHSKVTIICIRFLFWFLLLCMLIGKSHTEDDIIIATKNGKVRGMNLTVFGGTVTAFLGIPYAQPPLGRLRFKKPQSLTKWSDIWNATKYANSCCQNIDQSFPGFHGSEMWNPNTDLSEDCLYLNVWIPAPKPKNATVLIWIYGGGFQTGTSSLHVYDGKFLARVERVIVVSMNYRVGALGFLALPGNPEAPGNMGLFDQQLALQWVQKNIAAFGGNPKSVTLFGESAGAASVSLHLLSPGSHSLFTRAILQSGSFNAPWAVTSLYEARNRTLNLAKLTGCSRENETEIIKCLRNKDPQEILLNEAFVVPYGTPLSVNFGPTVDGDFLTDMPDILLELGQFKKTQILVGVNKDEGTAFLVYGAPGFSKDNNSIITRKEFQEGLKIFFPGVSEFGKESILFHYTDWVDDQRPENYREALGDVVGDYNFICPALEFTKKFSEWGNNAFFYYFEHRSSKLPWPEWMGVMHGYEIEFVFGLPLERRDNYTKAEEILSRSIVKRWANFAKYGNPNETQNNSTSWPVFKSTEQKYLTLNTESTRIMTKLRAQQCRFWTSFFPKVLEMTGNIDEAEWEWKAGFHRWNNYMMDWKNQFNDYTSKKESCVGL

Rattus norvegicus [7] = assay: Antilipolytic activity in fasted Wistar rat assessed as reduction of plasma glycerol AUC ( 0 to 7 hrs) at 3 mg/kg, po; assay type: functional; design: scale not given: the % may be the effect or the level left
[8] = target: Acetylcholinesterase (Homo sapiens) (UniProt P22303); assay: Inhibition of AChE (unknown origin) at >50 uM preincubated for 10 mins followed by addition of acetylthiocholine iodide as substrate measured after 15 mins by spectrophotometric method
Acetylcholinesterase (Homo sapiens), sequence (P22303 whole entry): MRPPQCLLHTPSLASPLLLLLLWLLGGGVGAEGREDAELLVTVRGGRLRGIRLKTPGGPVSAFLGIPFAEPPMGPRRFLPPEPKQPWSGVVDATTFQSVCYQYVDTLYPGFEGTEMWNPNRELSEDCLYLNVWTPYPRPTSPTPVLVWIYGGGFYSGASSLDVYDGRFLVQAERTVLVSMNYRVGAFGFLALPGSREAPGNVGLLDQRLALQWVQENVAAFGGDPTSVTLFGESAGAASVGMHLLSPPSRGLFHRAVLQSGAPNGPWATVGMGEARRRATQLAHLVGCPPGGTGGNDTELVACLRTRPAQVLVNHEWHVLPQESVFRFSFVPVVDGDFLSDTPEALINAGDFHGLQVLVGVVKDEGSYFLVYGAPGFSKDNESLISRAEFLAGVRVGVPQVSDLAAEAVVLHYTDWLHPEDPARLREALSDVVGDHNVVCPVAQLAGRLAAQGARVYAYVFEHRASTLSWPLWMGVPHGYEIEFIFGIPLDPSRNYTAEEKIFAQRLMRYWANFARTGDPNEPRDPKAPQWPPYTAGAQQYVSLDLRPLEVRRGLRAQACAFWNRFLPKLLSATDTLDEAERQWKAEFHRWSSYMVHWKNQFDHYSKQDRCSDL

[9] = Cmax in rat at 3 mg/kg, po by LC-MS/MS analysis; assay type: ADME, organism-based; design: dose 3 mg/kg, route oral; details: in vivo
Rattus norvegicus [10] = assay: Antilipolytic activity in orally dosed fasted Wistar rat assessed as reduction of plasma glycerol AUC ( 0 to 7 hrs); assay type: functional, organism-based
[11] = AUC (0 to 7 hrs) in rat at 3 mg/kg, po by LC-MS/MS analysis; assay type: ADME, organism-based; design: time < 7 hr, dose 3 mg/kg, route oral; details: in vivo

O=C(Oc1ccc(Oc2ccc(C(F)(F)F)cn2)cc1)N1CCC(O)CC1
Activity (Rattus norvegicus [1]): Active | pIC50 (Hormone-sensitive lipase): 6.57

N#Cc1ccccc1OCc1ccc(Oc2ccc(C(F)(F)F)cn2)cc1
inhibition [2]: 0%

O=C(Cc1ccc(Oc2ccc(C(F)(F)F)cn2)cc1)N1CCC(O)CC1
inhibition [3]: 2%

O=C(Nc1ccc(Oc2ccc(C(F)(F)F)cn2)cc1)N1CCC(O)CC1
inhibition [3]: 0%

O=C(O)c1ccccc1OCc1ccc(Oc2ccc(C(F)(F)F)cn2)cc1
inhibition [2]: -8%

CC1(C)OB(c2ccc(OCc3ccc(Oc4ccc(C(F)(F)F)cn4)cc3)cc2)OC1(C)C
inhibition [2]: -10%

OB(O)c1ccccc1OCc1ccccc1
pIC50 (Hormone-sensitive lipase): 6.89

CC1(C)OB(c2ccccc2OCc2ccc(Oc3ccc(C(F)(F)F)cn3)cc2)OC1(C)C
inhibition [2]: 81%

O=C(c1ccccc1OCc1ccc(Oc2ccc(C(F)(F)F)cn2)cc1)C(F)(F)F
inhibition [2]: 1%

CC1(C)OB(c2cccc(OCc3ccc(Oc4ccc(C(F)(F)F)cn4)cc3)c2)OC1(C)C
inhibition [2]: 59%

O=P(O)(O)c1ccccc1OCc1ccc(Oc2ccc(C(F)(F)F)cn2)cc1
inhibition [2]: -5%

OB(O)c1ccccc1OCc1ccc(Oc2ccc(C(F)(F)F)cn2)cc1
inhibition [4]: Active | half-life [5]: 2.95 h | inhibition [6]: inactive | Activity (Rattus norvegicus [7]): 11% | inhibition [8]: inactive | Cmax [9]: 420 ng/mL | pIC50 (Hormone-sensitive lipase): 8.15 | Activity (Rattus norvegicus [10]): Dose-dependent effect | inhibition [2]: 89% | AUC(0-t) at 7 h [11]: 1750 ng·h/mL

From ChEMBL document CHEMBL3813600, “Identification of a novel boronic acid as a potent, selective, and orally active hormone sensitive lipase inhibitor” (Bioorg Med Chem, 2016)
